Several values for one entry are separate records, joined by “and”; a condition that tells them apart may be missing. Identical values can stand only once. Entries after “also recorded” stand apart in the source; their conditions may differ. Like-named read-outs stand apart in the source and are kept apart here.
How the values were obtained:
Y392F DXP synthase [1] = target: T1, Y392F DXP synthase (Escherichia coli, UniProt P77488, Y392F); assay type: biochemical, E. coli; details: 6 °C, from pyruvate and D-GAP
wild type DXP synthase [2] = target: T2, wild type DXP synthase (Escherichia coli, UniProt P77488); details: 6 °C; cited from earlier work
R478A DXP synthase [3] = target: T3, R478A DXP synthase (Escherichia coli, UniProt P77488, R478A); assay type: biochemical, E. coli; details: 6 °C, from pyruvate and D-GAP
R420A DXP synthase [4] = target: T4, R420A DXP synthase (Escherichia coli, UniProt P77488, R420A); experiment: biochemical; assay type: binding, E. coli
R478A DXP synthase [5] = target: T3, R478A DXP synthase; assay type: biochemical, E. coli; details: for Km: R478A, coupled assay, 37 °C
R478A DXP synthase [6] = target: T3, R478A DXP synthase; experiment: biochemical; assay type: binding, E. coli
Y392F DXP synthase [7] = target: T1, Y392F DXP synthase; assay type: biochemical, E. coli; details: for Km: Y392F, coupled assay, 37 °C
Y392F DXP synthase [8] = target: T1, Y392F DXP synthase; experiment: Substrate binding by intrinsic total protein fluorescence; design: species or system E. coli
wild type DXP synthase [9] = target: T2, wild type DXP synthase; experiment: as above; design: species or system E. coli
wild type DXP synthase [10] = target: T2, wild type DXP synthase; details: cited from earlier work
Y392F DXP synthase [11] = target: T1, Y392F DXP synthase; experiment: CD titration with pyruvate; assay type: binding, E. coli
wild type DXP synthase [12] = target: T2, wild type DXP synthase; details: read-out: Kd^pyruvate (apparent), CD spectroscopy; cited from earlier work
R478A DXP synthase [13] = target: T3, R478A DXP synthase; assay type: binding, E. coli; details: D-GAP up to 15 mM
R478A DXP synthase [14] = target: T3, R478A DXP synthase; assay type: biochemical, E. coli
R420A DXP synthase [15] = target: T4, R420A DXP synthase; experiment: Substrate binding by intrinsic total protein fluorescence; design: species or system E. coli; details: D-GAP up to 15 mM
R420A DXP synthase [16] = target: T4, R420A DXP synthase; experiment: Steady-state DXP formation monitored by CD at 290 nm; assay type: biochemical, E. coli; details: 37 °C, D-GAP 0.25 – 2 mM, 1 mM pyruvate
Y392F DXP synthase [17] = target: T1, Y392F DXP synthase; assay type: biochemical, E. coli; details: CD at 290 nm, 37 °C
wild type DXP synthase [18] = target: T2, wild type DXP synthase; experiment: DX product formation from pyruvate and D-glyceraldehyde; assay type: biochemical, E. coli; details: 30 mM D-glyceraldehyde and 5 mM pyruvate, 8 °C
R420A DXP synthase [19] = target: T4, R420A DXP synthase; details: + D-GAP (2 mM in second syringe), 6 °C
R478A DXP synthase [20] = target: T3, R478A DXP synthase; details: − D-GAP, 6 °C, single turnover
Y392F DXP synthase [21] = target: T1, Y392F DXP synthase; details: + D-GAP (200 μM in second syringe), 6 °C
Y392F DXP synthase [22] = target: T1, Y392F DXP synthase; details: − D-GAP, 6 °C, single turnover
wild type DXP synthase [23] = target: T2, wild type DXP synthase; details: 6 °C, cited from earlier work
wild type DXP synthase [24] = target: T2, wild type DXP synthase; details: − D-GAP, 6 °C; cited from earlier work
R478A DXP synthase [25] = target: T3, R478A DXP synthase; details: + D-GAP (2 mM in second syringe), 6 °C
R420A DXP synthase [26] = target: T4, R420A DXP synthase; details: − D-GAP, 6 °C, single turnover
wild type DXP synthase [27] = target: T2, wild type DXP synthase; details: 30 mM D-glyceraldehyde, 8 °C

In the case of `CC(=O)[C@@H](O)[C@H](O)COP(=O)(O)O` [DXP, 1-deoxy-D-xylulose 5-phosphate], the “Formation of DXP, k4 (faster phase)” value (Y392F DXP synthase [1]) is listed as 1.34 ± 0.12 s⁻¹, the “Formation of DXP, k4′ (slower phase)” value (Y392F DXP synthase [1]) is listed as 0.34 ± 0.01 s⁻¹ and the “Formation of DXP, k4′ (slower phase)” value (wild type DXP synthase [2]) is listed as 0.29 ± 0.01 s⁻¹. For the same molecule, the “Formation of DXP, k4 (faster phase)” value (R478A DXP synthase [3]) was 0.78 ± 0.08 s⁻¹ and the “Formation of DXP, k4′ (slower phase)” value (R478A DXP synthase [3]) was 0.26 ± 0.02 s⁻¹.

With `CC(=O)C(=O)O` [pyruvate] the Kd (R420A DXP synthase [4]) was 37 ± 8 µM, the “Hill coefficient nH for pyruvate” value (R420A DXP synthase [4]; R420A, CD, 5 °C) was 1.2 ± 0.3 and the Km (R478A DXP synthase [5]; read-out: Km^pyruvate) was 54 ± 7 µM. For the same molecule, the Kd (R478A DXP synthase [6]) was 80 ± 30 µM, the “Hill coefficient nH for pyruvate” value (R478A DXP synthase [6]; R478A, CD, 5 °C) was 1.0 ± 0.2 and the “increase in Km^pyruvate compared to wild type” value (Y392F DXP synthase [7]; Y392F vs wild type) was 1.5 fold. For the same molecule, the Km (Y392F DXP synthase [7]; read-out: Km^pyruvate) was 73 ± 4 µM, the Kd (Y392F DXP synthase [8]) was 230 ± 60 µM and the Kd (wild type DXP synthase [9]) was 230 ± 70 µM. For the same molecule, the Km (wild type DXP synthase [10]; read-out: Km^pyruvate, wild type) was 49 ± 8 µM, the Kd (Y392F DXP synthase [11]) was 113 µM and the Kd (wild type DXP synthase [12]) was 89.4 µM.

In the case of `O=C[C@H](O)COP(=O)(O)O` [D-GAP, D-glyceraldehyde 3-phosphate], the “increase in Km^D-GAP compared to wild type DXP synthase” value (R478A DXP synthase [5]; R478A vs wild type) is reported as 70 fold, the Km (R478A DXP synthase [5]; read-out: Km^D-GAP) is reported as 1600 ± 300 µM and the “fluorescence quenching upon titration of D-GAP” value (R478A DXP synthase [13]) is reported as “quenching of fluorescence was not observed; also recorded: negligible changes in fluorescence”. For the same molecule, the “Hill coefficient nH for D-GAP” value (R478A DXP synthase [14]; CD at 290 nm, 37 °C) was 1.1 ± 0.1, the Km (R478A DXP synthase [14]; read-out: Km^D-GAP, CD at 290 nm, 37 °C, D-GAP 0.15 – 2 mM, 1 mM pyruvate) was 530 ± 100 µM and the “fluorescence quenching upon titration of D-GAP” value (R420A DXP synthase [15]) was “negligible changes in fluorescence; also recorded: quenching of fluorescence was not observed”. The “decrease in kcat/Km^D-GAP compared to wild type” value (Y392F DXP synthase [7]; Y392F vs wild type) was “near eight-fold decrease”, the Km (Y392F DXP synthase [7]; read-out: Km^D-GAP) was 210 ± 20 µM and the Kd (wild type DXP synthase [9]) was 2000 ± 500 µM. The Km (wild type DXP synthase [10]; read-out: Km^D-GAP) was 23.5 ± 1.7 µM, the “saturation by D-GAP” value (R420A DXP synthase [16]) was “saturation by D-GAP is not achieved; also recorded: Saturation was not achieved” and the “Hill coefficient nH for D-GAP” value (Y392F DXP synthase [17]) was 1.2 ± 0.1.

In the case of `CC(=O)[C@@H](O)[C@H](O)CO` [DX, 1-deoxy-D-xylulose], the “overall rate of DX product formation, k4” value (wild type DXP synthase [18]) is reported as 1.15 ± 0.7 s⁻¹ and the “overall rate of DX product formation, k4′” value (wild type DXP synthase [18]) is reported as 0.5 ± 0.2 s⁻¹.

For `Cc1ncc(C[n+]2c(C(C)(O)C(=O)O)sc(CCOP(=O)(O)OP(=O)(O)O)c2C)c(N)n1` (stereo not drawn) [LThDP, C2α-lactylthiamin diphosphate], the “Formation of LThDP (re-synthesis), k1” value (R420A DXP synthase [19]) was “k1 = 0.67 ± 0.003 s^−1”, the “Formation of LThDP, k1 (faster phase)” value (R478A DXP synthase [20]) was 0.85 ± 0.03 s⁻¹ and the “Formation of LThDP, k1′ (slower phase)” value (R478A DXP synthase [20]) was 0.29 ± 0.02 s⁻¹. The “Formation of LThDP (re-synthesis), k1” value (Y392F DXP synthase [21]) was “k1 = 0.82 ± 0.01 s^−1”, the “Formation of LThDP, k1 (faster phase)” value (Y392F DXP synthase [22]) was 1.06 ± 0.03 s⁻¹ and the “Formation of LThDP, k1′ (slower phase)” value (Y392F DXP synthase [22]) was 0.3 ± 0.01 s⁻¹. The “D-GAP-promoted LThDP Decarboxylation, k2” value (wild type DXP synthase [23]) was “k2 = 42.0 ± 1.0 s^−1”, the “Formation of LThDP (re-synthesis), k1” value (wild type DXP synthase [23]; + D-GAP) was “k1 = 0.68 ± 0.01 s^−1” and the “Formation of LThDP, k1 (faster phase)” value (wild type DXP synthase [24]) was 1.39 ± 0.05 s⁻¹. The “Formation of LThDP, k1′ (slower phase)” value (wild type DXP synthase [24]) was 0.16 ± 0.02 s⁻¹, the “LThDP Decarboxylation, k2” value (wild type DXP synthase [24]) was “k2 = 0.07 ± 0.006 s^−1” and the “D-GAP-promoted LThDP Decarboxylation, k2” value (R478A DXP synthase [25]) was “k2 = 36.5 ± 1.1 s^−1”. The “Formation of LThDP (re-synthesis), k1” value (R478A DXP synthase [25]) was “k1 = 0.84 ± 0.004 s^−1”, the “Formation of LThDP, k1 (faster phase)” value (R420A DXP synthase [26]) was 1.24 ± 0.01 s⁻¹ and the “Formation of LThDP, k1′ (slower phase)” value (R420A DXP synthase [26]) was 0.28 ± 0.002 s⁻¹.

With `O=C[C@H](O)CO` [D-glyceraldehyde] the “rate of LThDP decarboxylation promoted with D-glyceraldehyde, k2” value (wild type DXP synthase [27]) was 21.5 ± 0.2 s⁻¹ and 21 s⁻¹.

— article PMC4065394 (The FEBS journal, 2014)
